{
  "source": "patent US20070049514A1",
  "about": "“Resonance modulator for diagnosis and therapy” (priority 2003, published 2007)",
  "key": {"[1]": {"tested_on": "Cutaneous Metastases (cancer lesions)", "test": "Phase I/II trials, topical A-007 0.25% gel on cutaneous metastases", "assay_type": "in vivo, human"}, "[2]": {"tested_on": "T-lymphocytes (CD4+, CD3+, CD8+, CD45+) and CD11c+ dendritic cells in skin", "test": "Histochemical assays of biopsies of human skin topically treated with A-007", "assay_type": "in vivo"}, "[3]": {"conditions": "as seen by crystallography (Klein et al. 1993); cited from earlier work"}, "[4]": {"tested_on": "vaginal cancer / cervical cancer", "test": "A-007 0.25% gel intravaginally, cancer response and toxicity", "conditions": "per patient"}, "[5]": {"tested_on": "CD45+ receptor", "test": "CD45+ receptor modulation in lymphocytes and dendritic cells", "assay_type": "cell-based, human", "text": "CD45+ is expressed on dendritic cells, lymphocytes, monocytes, and leukocytes, as well as some neoplastic cells, as a protein tyrosine phosphatase (TP), which together with other members of the PTPs, are responsible for […] tyrosine residues. Blockade of the CD45+ receptor sites with anti-CD45 antibodies inhibits T-cell activation and prevents mitogen (lectin) activation of naïve T-cells. CD45+ receptor surfaces contain arginine, serine/threonine and cysteine moieties, which can bind to and/or transfer natural ligands to the surface of APCs, as well as hydrolyze tyrosyl phosphates. […] Different resonance states of A-007 are capable of interacting with different immune cells."}, "[6]": {"tested_on": "lymphocytes in culture", "test": "Lymphocyte blastogenesis, blasts per high powered field", "assay_type": "cell-based", "conditions": "number of blasts per high powered field", "procedure": "(§1) Once candidates have been selected as potential resonance modulators, they can be easily assayed to determine whether they induce lymphocyte blastogenesis and activate lymphocytes. Such an assay is found in Morgan et al., Anticancer Research 13:1763-1768 (1993), which is incorporated by reference. See also Janossy et al., Clin. Exp. Immunol. 14:581-596 (1973). Briefly, uptake of [^3]thymidine was measured for lymphocytes in culture. Lymphocytes were cultured in RPMI-1640 tissue culture medium supplemented with 10% fetal bovine serum (FBS). Following stimulation with the resonance modulator, tritiated thymidine (2-20 μCi/ml, specific activity 2 Ci/mmol) was added to the cells and incubated with them. The uptake of [^3]thymidine was stopped by the addition of cold 10% trichloroacetic acid after a selected period of time, and the radioactivity of the samples measured in a scintillation counter. The % lymphoblast was determined by counting the number of blasts per high powered field (hpf) while % activation was determined by uptake of the tritiated thymidine. The increase voltage was measured with an oscilloscope as in Example 7."}, "[7]": {"tested_on": "lymphocytes in culture", "test": "Lymphocyte activation, tritiated thymidine uptake", "assay_type": "cell-based", "conditions": "uptake of tritiated thymidine", "procedure": "as §1"}, "[8]": {"tested_on": "anal squamous cell cancer", "test": "A-007 0.25% gel intra-anally, cancer response and toxicity", "assay_type": "in vivo, human", "conditions": "per patient"}, "[9]": {"tested_on": "HPV", "test": "A-007 0.25% gel intravaginally, HPV response (titers)", "assay_type": "in vivo, Humans", "set-up": "key: NC: no change", "conditions": "per patient, intravaginal gel"}, "[10]": {"test": "Absorption and disposition of A-007 (blood detection, skin absorption, excretion)"}, "[11]": {"tested_on": "T-lymphocytes (CD markers)", "test": "A-007 0.25% gel intra-anally, T-cell profile (tissue/blood)", "assay_type": "in vivo, human", "set-up": "key: NC: no change", "conditions": "intra-anal gel"}, "[12]": {"tested_on": "benign fibroblasts or healthy epithelial cells", "test": "A-007 induced cell death in non-HPV cells", "assay_type": "cell-based", "conditions": "cells not containing or transformed by HPV"}, "[13]": {"tested_on": "cervical early cancer-in-situ", "test": "A-007 gel in cervical cancer-in-situ (single patient)", "assay_type": "in vivo, human", "conditions": "0.25% gel (2 g) daily for 5 days", "text": "The responses are associated with increased organization of T-lymphocyte patterns and disappearance of cancer cells."}, "[14]": {"tested_on": "lymphoma", "test": "A-007 gel on the skin of a patient with lymphoma", "assay_type": "in vivo, human", "conditions": "0.25% gel (0.5 g)"}, "[15]": {"tested_on": "HeLa cancer cells (HPV+)", "test": "HeLa cancer cells incubated with A-007 crystals", "assay_type": "cell-based", "conditions": "incubated with crystals for 24 hours", "text": "Then through cell membrane chemical interphase and modulation of the PTP receptors the cells down regulate, darken with pyknotic changes associated with DNA agglutination resulting in death (lower clumped dark staining cells). The attraction that the crystals have for the cells is associated with intramolecular resonance and associated magnetic patterns described in FIGS. 3 and 4."}, "[16]": {"tested_on": "naive human lymphocytes (obtained from peripheral blood)", "test": "Aggregation of naive lymphocytes around an A-007 crystal in tissue culture", "assay_type": "cell-based", "conditions": "0.5 mg crystals in RPMI, one hour", "text": "The ability of an agent to induce aggregation of naïve lymphocytes in culture around a test agent is another factor to be considered in determining whether the agent is a resonance modulator suitable for use in the methods disclosed herein. The ability to induce aggregation within one hour is a particularly strong indication that the compound is suitable for further investigation. “Aggregation” refers to a substantial increase in the number of lymphocytes, such as an increase visible by microscopy, as in FIG. 5."}, "[17]": {"tested_on": "T-lymphocytes (CD markers)", "test": "A-007 0.25% gel intravaginally, T-cell profile (tissue/blood)", "assay_type": "in vivo, Humans", "set-up": "key: NC: no change", "conditions": "per patient; intravaginal gel"}, "[18]": {"conditions": "53 people treated with topical 0.25% gel"}, "[19]": {"conditions": "Breast, 0.25% gel topically twice daily"}},
  "note": "Where “and” joins values, the source holds several entries; their conditions need not be identical. Equal entries are not always repeated. Entries after “also recorded” stand apart in the source; their conditions may differ.",
  "data": [
    {"smiles": "O=[N+]([O-])c1ccc(NN=C(c2ccc(O)cc2)c2ccc(O)cc2)c([N+](=O)[O-])c1", "note": "[Compound A-007, 4,4′-dihydroxybenzophenone-2,4-dinitrophenylhydrazone]", "values": [
      {"measurement": "complete responses (number)", "setting": "[1]; [18]", "result": "ten"},
      {"measurement": "objective remissions", "setting": "[1]; [18]", "result": 37, "unit": "%"},
      {"measurement": "Duration", "setting": "[1]; Angiosarcoma", "result": 0, "unit": "wks"},
      {"measurement": "Response: number NR", "setting": "[1]; Angiosarcoma", "result": 2, "unit": "NR"},
      {"measurement": "Toxicities", "setting": "[1]; Angiosarcoma", "result": 0},
      {"measurement": "Duration", "setting": "[1]; Anogenital", "result": "1.8+ yrs"},
      {"measurement": "Response: number CR", "setting": "[1]; Anogenital", "result": 5},
      {"measurement": "Response: number PR", "setting": "[1]; Anogenital", "result": 2},
      {"measurement": "Toxicities", "setting": "[1]; Anogenital", "result": 0},
      {"measurement": "Toxicities (number, skin, mild)", "setting": "[1]; Breast", "result": "7 skin (mild)"},
      {"measurement": "Response: number CR", "setting": "[1]; [19]", "result": 5},
      {"measurement": "Response: number PR", "setting": "[1]; [19]", "result": 7},
      {"measurement": "Response: number stable", "setting": "[1]; [19]", "result": 6, "unit": "stable"},
      {"measurement": "Duration", "setting": "[1]; H/N (Sq. Cell)", "result": 0, "unit": "wks"},
      {"measurement": "Toxicities", "setting": "[1]; H/N (Sq. Cell)", "result": 0},
      {"measurement": "Duration", "setting": "[1]; KS (Kaposi's sarcoma)", "result": 11, "unit": "wks"},
      {"measurement": "Response: number NR", "setting": "[1]; KS (Kaposi's sarcoma)", "result": "2 PR, 2 NR"},
      {"measurement": "Response: number PR", "setting": "[1]; KS (Kaposi's sarcoma)", "result": "2 PR, 2 NR"},
      {"measurement": "Toxicities", "setting": "[1]; KS (Kaposi's sarcoma)", "result": 0},
      {"measurement": "Duration", "setting": "[1]; Melanoma", "result": "3-15 wks"},
      {"measurement": "Response: number NR", "setting": "[1]; Melanoma", "result": 3},
      {"measurement": "Toxicities (number, skin, mild)", "setting": "[1]; Melanoma", "result": "2 Skin (mild)"},
      {"measurement": "Response: number PR", "setting": "[1]; Melanoma, 0.25% gel topically twice daily", "result": 1},
      {"measurement": "Duration", "setting": "[1]; NHL", "result": 3.5, "unit": "yrs"},
      {"measurement": "Toxicities", "setting": "[1]; NHL", "result": 0},
      {"measurement": "Response: number PR", "setting": "[1]; NHL (non-Hodgkins' lymphoma)", "result": 1, "unit": "PR"},
      {"measurement": "local or systemic toxicity", "setting": "[1]; topical A-007", "result": "substantial absence of A-007 induced local or systemic toxicity"},
      {"measurement": "T-lymphocyte infiltrates (CD4+, CD3+, CD8+, CD45+) in treated skin", "setting": "[2]; biopsies during topical treatment", "result": "increased infiltrates"},
      {"measurement": "CD11c+ dendritic cell infiltrates in treated skin", "setting": "[2]; treated areas", "result": "Increased skin infiltrates"},
      {"measurement": "hydrogen bond donors", "setting": "[3]", "result": "greater than 5"},
      {"measurement": "Response (Cancer)", "setting": "[4]; 2 g gel intravaginally daily for five days", "result": "75% and >75%"},
      {"measurement": "Toxicity", "setting": "[4]; intravaginal gel", "result": "None"},
      {"measurement": "inhibition of CD45+", "setting": "[5]", "result": "does not inhibit or block CD45+"},
      {"measurement": "CD45+ and CD11c+ receptors in human peripheral dendritic cells", "setting": "[5]; A-007-activated DCs", "result": "up-regulating both CD45+ and CD11c+ receptors"},
      {"measurement": "% Lymphoblast", "setting": "[6]", "result": 75, "unit": "%"},
      {"measurement": "% Activation", "setting": "[7]", "result": 100, "unit": "%"},
      {"measurement": "Response (Cancer)", "setting": "[8]; gel intra-anally daily for five days", "result": "0% (4×) and 100%"},
      {"measurement": "Toxicity", "setting": "[8]; intra-anal gel", "result": "None"},
      {"measurement": "HPV (Response), changes in HP titers", "setting": "[9]", "result": "+(50%)"},
      {"measurement": "HPV (Response), changes in HP titers", "setting": "[9]; CR as in Table 1", "result": "+(NC)"},
      {"measurement": "excretion", "setting": "[10]; administered to a human subject", "result": "excreted substantially unchanged"},
      {"measurement": "absorption from/through the skin", "setting": "[10]; applied to skin, animal and human studies", "result": "not absorbed from the skin; also recorded: substantially not absorbed through the skin"},
      {"measurement": "absorption into the blood", "setting": "[10]; in vivo", "result": "not absorbed into the blood"},
      {"measurement": "detection of A-007 in blood", "setting": "[10]; subjects treated with topical A-007", "result": "not been detected in the blood"},
      {"measurement": "T-Cell Profile (Tissue/Blood) All others", "setting": "[11]; patient A-3", "result": "NC"},
      {"measurement": "T-Cell Profile (Tissue/Blood) CD4/8", "setting": "[11]; patient A-5", "result": "NC"},
      {"measurement": "T-Cell Profile (Tissue/Blood) CD45+", "setting": "[11]; per patient", "result": "(NC)"},
      {"measurement": "A-007 induced cell death", "setting": "[12]", "result": "not observed"},
      {"measurement": "duration of cure", "setting": "[13]", "result": "over one year"},
      {"measurement": "response of cervical carcinoma-in-situ (biopsy)", "setting": "[13]", "result": "disappearance of the cancer cells; also recorded: loss of malignant changes"},
      {"measurement": "peripheral lymphocyte profile (total lymphocyte count)", "setting": "[14]", "result": "improvement"},
      {"measurement": "effect on HeLa cancer cells", "setting": "[15]", "result": "undergo necrobiosis and death; also recorded: undergo pyknosis (DNA agglutination and necrosis) and die"},
      {"measurement": "aggregation of lymphocytes around crystal", "setting": "[16]", "result": "lymphocytes and dendritic cells aggregate around the crystal or pellet"},
      {"measurement": "T-Cell Profile (Tissue/Blood) CD8/4+", "setting": "[17]", "result": "NC"}
    ]}
  ]
}
